Data as given in publication PMC12310023 (PLOS Neglected Tropical Diseases, 2025).
Like-named read-outs stand apart in the source and are kept apart here.

How the values were obtained:
[1] = biological target: T1, 5-HT2B (Homo sapiens, UniProt P41595); assay: Cerep cellular and nuclear receptor functional assay; format: cell-based
T1 construct: Cerep (Eurofins, France)

[2] = biological target: T1, 5-HT2B; assay: Cerep binding assay; settings: agonist radioligand, mean, read-out: % inhibition of control specific binding
[3] = Monkey PK (r15 PO 1, r16 IV 1 mg/kg); format: in vivo
[4] = tested on: C. parvum Bunch Grass Farms isolate; assay: Calibr high-content imaging Cryptosporidium panel; format: cell-based, Cryptosporidium parvum; settings: Cryptosporidium parvum
[5] = tested on: NLuc C. parvum (Calibr); assay: Calibr panel, UA Nanoluc C. parvum count; format: cell-based; settings: Cryptosporidium parvum
[6] = tested on: CYP1A2; assay: CYP Induction Assay in dog hepatocytes; settings: 30 and 100 μM, 48 h
[7] = Dog PK (r10 PO 1, r11 IV 1, r12-r14 PO 3, 10, 30 mg/kg); format: in vivo; settings: after BKI-1708 PO 1 mg/kg
[8] = biological target: hERG (Homo sapiens, UniProt Q12809); assay: cell-based
[9] = biological target: T2, CYP2C8 (Homo sapiens, UniProt P10632); assay: CYP reaction phenotyping, recombinant supersomes
T2 sequence (P10632 1-490): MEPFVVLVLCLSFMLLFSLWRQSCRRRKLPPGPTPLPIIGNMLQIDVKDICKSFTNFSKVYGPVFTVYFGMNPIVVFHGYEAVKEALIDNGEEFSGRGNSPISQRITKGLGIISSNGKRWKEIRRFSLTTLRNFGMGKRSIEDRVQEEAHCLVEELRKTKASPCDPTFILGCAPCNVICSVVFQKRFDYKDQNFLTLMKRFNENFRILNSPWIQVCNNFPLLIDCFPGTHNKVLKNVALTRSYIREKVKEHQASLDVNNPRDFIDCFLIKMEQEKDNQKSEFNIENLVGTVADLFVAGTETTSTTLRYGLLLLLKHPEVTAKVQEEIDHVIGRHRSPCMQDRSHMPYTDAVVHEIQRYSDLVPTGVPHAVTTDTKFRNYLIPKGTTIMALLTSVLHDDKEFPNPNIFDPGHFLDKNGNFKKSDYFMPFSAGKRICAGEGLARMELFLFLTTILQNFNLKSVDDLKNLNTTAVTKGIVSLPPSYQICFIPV

[10] = biological target: T3, CYP2B6 (Homo sapiens, UniProt P20813); assay: CYP reaction phenotyping, recombinant supersomes
T3 sequence (P20813 1-491): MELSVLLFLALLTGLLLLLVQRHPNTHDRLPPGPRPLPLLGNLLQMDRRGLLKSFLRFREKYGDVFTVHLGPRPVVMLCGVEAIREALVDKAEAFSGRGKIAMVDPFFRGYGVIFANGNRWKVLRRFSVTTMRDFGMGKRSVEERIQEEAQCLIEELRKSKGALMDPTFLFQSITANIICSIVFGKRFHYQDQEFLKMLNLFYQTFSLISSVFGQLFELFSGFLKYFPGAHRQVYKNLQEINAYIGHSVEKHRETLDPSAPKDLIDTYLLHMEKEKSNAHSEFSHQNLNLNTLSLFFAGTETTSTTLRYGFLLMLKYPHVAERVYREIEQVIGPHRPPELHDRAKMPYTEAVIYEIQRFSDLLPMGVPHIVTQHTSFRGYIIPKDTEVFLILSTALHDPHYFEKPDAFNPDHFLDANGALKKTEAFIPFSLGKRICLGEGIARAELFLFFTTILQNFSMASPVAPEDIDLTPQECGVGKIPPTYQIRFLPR

[11] = Liver microsome stability; settings: dog, pooled liver microsomes
[12] = biological target: T4, PPARγ (Homo sapiens, UniProt P37231); assay: Cerep binding assay; settings: agonist radioligand, mean
T4 construct: Cerep (Eurofins, France)

[13] = biological target: CYP2C19 (Homo sapiens, UniProt P33261); assay: CYP reaction phenotyping, recombinant supersomes
[14] = Liver microsome stability; settings: rat, pooled liver microsomes
[15] = biological target: PKD3 (Homo sapiens, UniProt O94806); assay: Kinome profiling; format: biochemical
[16] = biological target: CYP2D6 (Homo sapiens, UniProt P10635); assay: in vitro; settings: recombinant CYP2D6 supersomes
[17] = Hepatocyte stability; settings: human
[18] = Liver microsome stability; settings: human, pooled liver microsomes

T1 sequence (P41595 whole entry): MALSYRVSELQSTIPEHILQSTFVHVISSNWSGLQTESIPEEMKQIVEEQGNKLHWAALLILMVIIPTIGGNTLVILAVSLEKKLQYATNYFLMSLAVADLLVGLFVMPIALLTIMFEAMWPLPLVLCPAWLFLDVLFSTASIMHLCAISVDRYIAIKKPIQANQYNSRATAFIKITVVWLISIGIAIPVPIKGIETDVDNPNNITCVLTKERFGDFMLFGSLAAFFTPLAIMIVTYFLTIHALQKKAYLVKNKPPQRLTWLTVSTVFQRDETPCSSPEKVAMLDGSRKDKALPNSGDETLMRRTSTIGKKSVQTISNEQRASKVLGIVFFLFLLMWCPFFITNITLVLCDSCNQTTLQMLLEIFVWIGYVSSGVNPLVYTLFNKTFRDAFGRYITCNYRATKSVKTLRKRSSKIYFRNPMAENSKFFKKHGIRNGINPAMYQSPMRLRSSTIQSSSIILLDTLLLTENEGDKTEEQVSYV
T4 sequence (P37231 whole entry): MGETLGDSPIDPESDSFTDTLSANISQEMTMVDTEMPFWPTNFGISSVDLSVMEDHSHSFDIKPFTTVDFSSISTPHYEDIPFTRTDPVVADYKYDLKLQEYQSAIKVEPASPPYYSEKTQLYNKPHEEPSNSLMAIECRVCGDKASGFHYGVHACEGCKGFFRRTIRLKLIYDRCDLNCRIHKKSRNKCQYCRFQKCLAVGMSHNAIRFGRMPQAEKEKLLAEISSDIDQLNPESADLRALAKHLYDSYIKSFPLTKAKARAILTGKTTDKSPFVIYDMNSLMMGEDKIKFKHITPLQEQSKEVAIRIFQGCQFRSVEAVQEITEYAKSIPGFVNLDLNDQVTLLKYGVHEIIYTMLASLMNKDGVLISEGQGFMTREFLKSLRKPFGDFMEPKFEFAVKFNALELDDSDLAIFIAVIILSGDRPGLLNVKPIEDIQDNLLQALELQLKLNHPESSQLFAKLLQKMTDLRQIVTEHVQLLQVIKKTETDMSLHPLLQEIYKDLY
Sequence of CYP2D6 (P10635 whole entry): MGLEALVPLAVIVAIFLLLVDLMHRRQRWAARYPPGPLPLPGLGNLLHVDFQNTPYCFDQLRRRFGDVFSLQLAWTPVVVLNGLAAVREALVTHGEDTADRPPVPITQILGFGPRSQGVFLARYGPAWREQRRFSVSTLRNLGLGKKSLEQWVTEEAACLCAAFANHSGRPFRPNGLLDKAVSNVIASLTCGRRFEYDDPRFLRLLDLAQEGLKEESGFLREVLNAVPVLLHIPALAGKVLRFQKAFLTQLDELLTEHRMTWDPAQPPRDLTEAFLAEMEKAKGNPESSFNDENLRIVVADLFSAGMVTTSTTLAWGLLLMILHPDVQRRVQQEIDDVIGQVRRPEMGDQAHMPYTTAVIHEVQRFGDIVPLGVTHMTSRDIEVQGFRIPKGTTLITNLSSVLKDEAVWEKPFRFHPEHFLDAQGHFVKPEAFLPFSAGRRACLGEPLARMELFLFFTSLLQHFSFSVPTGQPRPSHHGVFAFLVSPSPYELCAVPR
Sequence of CYP2C19 (P33261 whole entry): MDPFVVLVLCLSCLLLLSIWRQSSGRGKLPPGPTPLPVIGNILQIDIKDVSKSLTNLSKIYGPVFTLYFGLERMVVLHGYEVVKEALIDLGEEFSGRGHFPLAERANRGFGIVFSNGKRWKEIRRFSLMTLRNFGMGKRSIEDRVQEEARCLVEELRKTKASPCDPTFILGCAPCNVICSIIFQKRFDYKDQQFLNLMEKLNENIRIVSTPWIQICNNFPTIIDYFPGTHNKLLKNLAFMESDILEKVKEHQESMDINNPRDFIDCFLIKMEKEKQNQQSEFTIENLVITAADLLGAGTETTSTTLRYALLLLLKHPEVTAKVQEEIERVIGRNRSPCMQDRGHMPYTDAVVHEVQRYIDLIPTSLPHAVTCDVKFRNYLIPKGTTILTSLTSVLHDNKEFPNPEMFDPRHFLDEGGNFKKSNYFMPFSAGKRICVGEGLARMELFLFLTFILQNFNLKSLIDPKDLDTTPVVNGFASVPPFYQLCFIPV
Sequence of hERG (Q12809 whole entry): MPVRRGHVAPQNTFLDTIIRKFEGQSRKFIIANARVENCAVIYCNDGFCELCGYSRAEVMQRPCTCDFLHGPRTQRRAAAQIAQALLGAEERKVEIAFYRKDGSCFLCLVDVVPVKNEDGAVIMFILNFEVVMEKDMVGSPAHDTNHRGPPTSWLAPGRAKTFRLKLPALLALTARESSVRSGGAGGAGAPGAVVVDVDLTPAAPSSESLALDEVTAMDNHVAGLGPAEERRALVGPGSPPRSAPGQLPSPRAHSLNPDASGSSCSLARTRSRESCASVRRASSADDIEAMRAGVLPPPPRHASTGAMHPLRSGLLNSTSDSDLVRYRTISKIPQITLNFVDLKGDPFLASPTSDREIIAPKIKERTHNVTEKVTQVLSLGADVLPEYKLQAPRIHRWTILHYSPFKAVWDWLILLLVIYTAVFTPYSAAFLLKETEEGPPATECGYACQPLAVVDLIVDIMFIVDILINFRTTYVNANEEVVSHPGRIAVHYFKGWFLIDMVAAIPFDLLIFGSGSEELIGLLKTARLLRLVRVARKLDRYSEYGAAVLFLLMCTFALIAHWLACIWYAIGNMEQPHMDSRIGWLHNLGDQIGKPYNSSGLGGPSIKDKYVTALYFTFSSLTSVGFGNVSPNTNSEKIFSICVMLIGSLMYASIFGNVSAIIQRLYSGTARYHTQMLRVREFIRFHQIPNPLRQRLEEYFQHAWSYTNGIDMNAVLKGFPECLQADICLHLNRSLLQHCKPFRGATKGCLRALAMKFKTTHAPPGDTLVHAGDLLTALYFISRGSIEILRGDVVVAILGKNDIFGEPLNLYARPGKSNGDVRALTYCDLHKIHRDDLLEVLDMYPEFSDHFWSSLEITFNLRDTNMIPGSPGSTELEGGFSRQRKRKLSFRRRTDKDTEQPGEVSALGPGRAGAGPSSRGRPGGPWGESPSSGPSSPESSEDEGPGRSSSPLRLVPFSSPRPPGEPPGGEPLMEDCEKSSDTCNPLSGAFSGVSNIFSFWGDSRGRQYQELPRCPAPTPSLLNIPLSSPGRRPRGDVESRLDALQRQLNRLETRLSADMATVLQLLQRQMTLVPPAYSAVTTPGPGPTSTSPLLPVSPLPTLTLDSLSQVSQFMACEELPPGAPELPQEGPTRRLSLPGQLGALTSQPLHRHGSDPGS
Sequence of PKD3 (O94806 whole entry): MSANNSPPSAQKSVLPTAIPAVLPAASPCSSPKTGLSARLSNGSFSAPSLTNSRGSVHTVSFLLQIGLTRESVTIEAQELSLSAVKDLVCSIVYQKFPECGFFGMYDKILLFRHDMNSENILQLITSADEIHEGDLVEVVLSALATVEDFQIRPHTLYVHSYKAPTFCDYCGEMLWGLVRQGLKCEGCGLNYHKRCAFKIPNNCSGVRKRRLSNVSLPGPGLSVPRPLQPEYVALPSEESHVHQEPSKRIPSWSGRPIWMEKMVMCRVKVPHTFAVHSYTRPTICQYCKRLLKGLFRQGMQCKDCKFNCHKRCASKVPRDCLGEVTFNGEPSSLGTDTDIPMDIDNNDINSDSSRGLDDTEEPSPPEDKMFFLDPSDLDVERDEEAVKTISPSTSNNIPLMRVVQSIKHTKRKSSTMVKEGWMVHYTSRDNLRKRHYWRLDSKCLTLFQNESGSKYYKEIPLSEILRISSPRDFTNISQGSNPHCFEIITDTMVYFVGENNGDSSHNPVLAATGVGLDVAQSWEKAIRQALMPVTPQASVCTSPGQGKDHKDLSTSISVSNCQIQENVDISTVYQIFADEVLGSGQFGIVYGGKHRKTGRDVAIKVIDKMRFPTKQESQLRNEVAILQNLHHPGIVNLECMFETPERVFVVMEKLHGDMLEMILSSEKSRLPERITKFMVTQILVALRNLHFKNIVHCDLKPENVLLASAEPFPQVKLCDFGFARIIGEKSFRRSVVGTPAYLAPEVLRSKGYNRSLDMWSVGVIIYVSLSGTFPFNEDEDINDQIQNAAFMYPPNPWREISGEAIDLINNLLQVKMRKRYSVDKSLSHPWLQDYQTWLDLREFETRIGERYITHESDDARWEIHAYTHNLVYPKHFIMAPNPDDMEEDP

CC1(C)Cn2nc(-c3ccc4cc(OC5CC5)ccc4c3)c(C(N)=O)c2NC1O (centres unmarked) [M2]
agonist effect [1]: no effect up to 100 μM | IC50 ([1]; read-out: IC50, antagonist effect): 20 µM | inhibition at 10 µM [2]: 57.1% | M2 AUC0-inf ([3]; after BKI-1708 IV 1 mg/kg): 63 ± 9 µmol·min/L | M2 AUC0-inf ([3]; after BKI-1708 PO 1 mg/kg): 58 ± 13 µmol·min/L | EC50 [4]: 0.32 µM | EC90 [4]: 0.77 µM | EC50 ([4]; read-out: Bunch Grass Farm C. parvum Count EC50, Crypto Panel 3 Replicate 1): 0.388 µM | EC50 ([4]; read-out: Bunch Grass Farm C. parvum Count EC50, Crypto Panel 3 Replicate 2): 0.247 µM | EC90 ([4]; read-out: Bunch Grass Farm C. parvum Count EC90, Replicate 1): 0.966 µM | EC90 ([4]; read-out: Bunch Grass Farm C. parvum Count EC90, Replicate 2): 0.569 µM | EC50 ([5]; Replicate 1, read-out: UA Nanoluc C. parvum Count EC50): 0.468 µM | EC90 ([5]; Replicate 1, read-out: UA Nanoluc C. parvum Count EC90): 1.46 µM | EC50 ([5]; Replicate 2, read-out: UA Nanoluc C. parvum Count EC50): 0.212 µM | EC90 ([5]; Replicate 2, read-out: UA Nanoluc C. parvum Count EC90): 1.01 µM | EC50 ([5]; read-out: EC50): 0.34 µM | EC90 ([5]; read-out: EC90): 1.24 µM | induction of CYP1A2 [6]: strong inducers | M2 AUC0-inf [7]: 196 ± 12 µmol·min/L | IC50 [8]: 6.2 µM | % contribution [9]: 0.0% | CLint [9]: <0.029 µL/min/pmol | % contribution [10]: 5.1% | CLint [10]: 0.044 µL/min/pmol | CLint scaled [11]: < 33.3 mL/min/kg | half-life [11]: > 2 h | microsomal CLint [11]: < 23.1 µL/min/mg | % inhibition of control specific binding ([12]; 10 μM): 70.1% | inhibition at 10 µM ([12]; read-out: % inhibition of control specific binding): 70% | % contribution [13]: 0.0% | CLint [13]: <0.029 µL/min/pmol | CLint scaled [14]: < 41.7 mL/min/kg | half-life [14]: > 2 h | microsomal CLint [14]: < 23.1 µL/min/mg | IC50 [15]: 0.23 µM | CLint scaled [16]: < 0.183 mL/min/kg | half-life [16]: > 4 h | LM:hepatocyte CLint_scaled ratio ([17]; liver microsomes and primary hepatocytes): <2.5 | CLint scaled ([17]; primary hepatocytes): 10 mL/min/kg | half-life ([17]; primary hepatocytes): 6.27 h | hepatocyte CLint ([17]; primary hepatocytes): 3.7 µL/min/1e6 cells | CLint scaled [18]: < 25 mL/min/kg | half-life [18]: > 2 h | microsomal CLint [18]: < 23.1 µL/min/mg
